Our source for the TGI and GI50 values is PubChem BioAssay (NCI).

Some test systems named below: U251 CNS; HCT-15 colon; A549 NSCLC; OVCAR-4 ovarian; 786-0 renal; HOP-62 NSCLC; HOP-92 NSCLC; NCI-H23 lung; MCF7 breast; HS 578T breast.
Common to all, as to assay: inhibition of tumour cell growth, NCI panel, 48 h

Molecules are shown by their SMILES.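 The compound was tested at five concentrations on cells cultured in 96-well plates, with a 48-hour exposure period. Abbreviation: GI50, concentration required for 50% inhibition of growth. TGI: concentration producing complete growth inhibition.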

With `OCC(O)COc1c(Cl)cc(Cl)cc1Cl` (stereo not drawn), the TGI is above 100 µM in the test on U251 CNS; above 100 µM with HCT-15 colon; above 100 µM with A549 NSCLC; above 100 µM in the test with OVCAR-4 ovarian; above 76.5 µM in the test on 786-0 renal; above 100 µM in the test with HOP-62 NSCLC. In addition, the TGI with HOP-92 NSCLC and in the test with NCI-H23 lung was above 100 µM in each case.

On to `Cc1cn([C@H]2C[C@H](O)[C@@H](CO)O2)c(=O)nc1N`, for which the TGI in the test on MCF7 breast, in the test on U251 CNS, with HCT-15 colon, in the test with A549 NSCLC, in the test on HS 578T breast and in the test with OVCAR-4 ovarian was above 100 µM each time. The TGI in the test on 786-0 renal, in the test on HOP-62 NSCLC and in the test with NCI-H23 lung was above 100 µM each time.

As to `CN(C)c1ccc(Nc2c3ccccc3nc3cc(NC(=O)CCN4CCCC4)ccc23)cc1`, the GI50 is 0.0711 µM in the test on MCF7 breast; 0.227 µM in the test on U251 CNS; 0.816 µM in the test on HCT-15 colon; 0.0688 µM in the test with A549 NSCLC; 0.57 µM in the test on OVCAR-4 ovarian; 0.343 µM with 786-0 renal. Also, the results for the GI50 in the test on HOP-62 NSCLC, in the test on HOP-92 NSCLC and with NCI-H23 lung were 0.235 µM, 0.379 µM and 0.29 µM, respectively. In addition, the TGI in the test on MCF7 breast worked out at 1.61 µM; with U251 CNS, 1.58 µM; in the test with HCT-15 colon, 2.2 µM; in the test on A549 NSCLC, 1.75 µM; with OVCAR-4 ovarian, 2.16 µM; in the test with 786-0 renal, 1.38 µM. The TGI in the test with HOP-62 NSCLC stood at 1.56 µM; in the test on HOP-92 NSCLC, 2.14 µM; in the test on NCI-H23 lung, 1.35 µM.

Regarding `c1ccc2c(c1)Sc1ccccc1N2C1CN2CCC1CC2` (stereo not drawn), the TGI in the test on U251 CNS turned out to be 30.9 µM; in the test on HCT-15 colon, 34 µM; in the test with A549 NSCLC it was 32.1 µM; in the test on OVCAR-4 ovarian, 35.2 µM; in the test on 786-0 renal it was 25.9 µM; in the test on HOP-62 NSCLC, 25.9 µM. For the same molecule, the TGI with NCI-H23 lung is 74.5 µM.

Turning to `Nc1c(C(=O)NC23CC4CC(CC(C4)C2)C3)[n+]([O-])c2ccccc2[n+]1[O-]`, the TGI with U251 CNS, in the test with HCT-15 colon, in the test on A549 NSCLC, in the test with OVCAR-4 ovarian, in the test on 786-0 renal and in the test with HOP-62 NSCLC was above 100 µM in each case. In addition, the TGI with HOP-92 NSCLC and in the test on NCI-H23 lung was above 100 µM in each case.

For `Cn1nc2ccc3nccc(NCCNCCO)c3c2n1`, the TGI in the test with U251 CNS, with HCT-15 colon, in the test on A549 NSCLC, with OVCAR-4 ovarian, in the test on 786-0 renal and with HOP-62 NSCLC was above 100 µM in each case. Further, the TGI in the test with HOP-92 NSCLC and in the test on NCI-H23 lung was above 100 µM throughout.

For the molecule `O=C(O)c1cn(C2CC2)c2cc(N3CCNCC3)c(F)cc2c1=O`, the GI50 is above 100 µM with MCF7 breast; above 100 µM in the test with HCT-15 colon; above 100 µM in the test on A549 NSCLC; 42.3 µM in the test with HS 578T breast; above 100 µM in the test on OVCAR-4 ovarian; above 100 µM in the test with 786-0 renal. In addition, the GI50 with HOP-62 NSCLC and in the test on NCI-H23 lung was above 100 µM each time. Also, the TGI in the test on MCF7 breast, with HCT-15 colon, in the test with A549 NSCLC, in the test with HS 578T breast, with OVCAR-4 ovarian and with 786-0 renal was above 100 µM throughout. Also, the TGI in the test with HOP-62 NSCLC and in the test with NCI-H23 lung was above 100 µM in each case.

`C[N+](C)(C)CC(=O)N/N=C(/Cc1nc2ccc([N+](=O)[O-])cc2[nH]c1=O)C(=O)Nc1cc(C(F)(F)F)ccc1Cl`: the TGI in the test with A549 NSCLC, in the test with OVCAR-4 ovarian, in the test with 786-0 renal, with HOP-62 NSCLC, in the test on HOP-92 NSCLC and with NCI-H23 lung was above 100 µM throughout.

As to `O=C(CCN1CCCC1)Nc1ccc2c(NCCc3ccccc3)c3ccccc3nc2c1`, the GI50 is 0.305 µM in the test on MCF7 breast; 0.329 µM with U251 CNS; 1.73 µM with HCT-15 colon; 0.334 µM with A549 NSCLC; 0.326 µM in the test on OVCAR-4 ovarian; 0.819 µM in the test on 786-0 renal. The GI50 is 0.389 µM with HOP-62 NSCLC, 0.332 µM in the test with HOP-92 NSCLC and 0.374 µM in the test on NCI-H23 lung. Further, the TGI was determined as 1.14 µM in the test on MCF7 breast; 1.55 µM in the test on U251 CNS; 4.85 µM in the test on HCT-15 colon; 1.7 µM with A549 NSCLC; 1.19 µM with OVCAR-4 ovarian; 2.2 µM with 786-0 renal. The TGI with HOP-62 NSCLC worked out at 1.76 µM; with HOP-92 NSCLC, 1.51 µM; in the test on NCI-H23 lung it was 1.39 µM.

As to `COc1ccc(OC(C)C(=O)O)c2c1CCCC2=O` (stereo not drawn), the TGI in the test with U251 CNS, in the test with HCT-15 colon, in the test with A549 NSCLC, with OVCAR-4 ovarian, in the test with 786-0 renal and with HOP-62 NSCLC was above 100 µM each time. The TGI with NCI-H23 lung is above 100 µM.

Consider `O=C(/C=C/c1ccccc1O)c1cccc2ccccc12`, for which the TGI with U251 CNS is above 66.4 µM; in the test on HCT-15 colon, above 58.4 µM; with A549 NSCLC, above 100 µM; in the test with OVCAR-4 ovarian, above 100 µM; in the test on 786-0 renal, above 100 µM; with HOP-62 NSCLC, above 100 µM. Also, the TGI in the test on HOP-92 NSCLC and in the test with NCI-H23 lung was above 100 µM throughout.

With `Cc1ccc(NC(=O)/C(=N/NC(=O)C[N+](C)(C)C)c2nc3ccccc3[nH]c2=O)cc1`, the TGI with U251 CNS was 85.3 µM; with HCT-15 colon, above 100 µM; in the test with A549 NSCLC, above 100 µM; with OVCAR-4 ovarian it was above 100 µM; in the test with 786-0 renal, above 100 µM; in the test with HOP-62 NSCLC it was above 100 µM. Further, the TGI in the test on HOP-92 NSCLC and in the test with NCI-H23 lung was above 100 µM throughout.

Consider `O=C1CCNC(=O)NC1`, for which the TGI in the test with U251 CNS, in the test on HCT-15 colon, with A549 NSCLC, in the test with OVCAR-4 ovarian, in the test with 786-0 renal and in the test with HOP-62 NSCLC was above 100 µM throughout. The same molecule gave a TGI with HOP-92 NSCLC above 100 µM.
